How the values were obtained:
[1] = Absorption maxima (λmax) of chalcogenopyrylium dyes; type: physicochemical
From the text: (§1) The ability of the dyes of this invention to function as a cancer-treating agent is in part a reflection of the ability of the dye to generate singlet oxygen in air-saturated solution. (As used herein, "air-saturated solution" means a solution of dye exposed to the atmosphere.) In studying a variety of chalcogenopyrylium dyes, only those dyes containing a selenium or tellurium atom show any appreciable generation of singlet oxygen upon irradiation. Fortuitously, selenopyrylium and telluropyrylium dyes have absorption maxima that are shifted to the red relative to their pyrylium and thiopyrylium analogues. That is, not only are these dyes effective in killing cancer cells because of their high quantum efficiency, but also they generally operate at the most preferred wavelengths, namely those of 700 nm or longer. Table III contains examples of chalcogenopyrylium dyes, their quantum efficiencies for singlet oxygen generation, and their absorption maxima. (In this Table, Ph=Phenyl, Me=Methyl, and t-Bu=tertiary butyl.)

[2] = Quantum efficiency of singlet oxygen generation in air-saturated solution; type: physicochemical
From the text: as §1

RT-1 glioma cells = experiment: Survival study of rats implanted with RT-1 glioma cells; type: in vivo, rat; details: for Mean Survival Time: 2.5 μmol femoral artery
Experimental: A survival study was conducted using Dye 1 with 400 g rats implanted with RT-1 glioma cells at day 0 and treated with 2.5 μmol of dye delivered by femoral artery injection on day 12. The treated animals were irradiated one hour post injection using a quartz fiber optic with a diffusion tip with the dye laser described earlier as the light source. Total irradiation energy was 50 J cm^-2 at 785 nm. Three control groups were used: untreated animals, animals treated with dye only, and animals treated with light only. [The number of rats per group were: 10 for laser and dye treatment, 6 for control (no treatment), 14 for dye only and 6 for laser only.] Mean survival time data are compiled in Table VIII.

[3] = Distribution of Dye 1 in organ tissues of glioma (RT-1) bearing rats; type: in vivo, rat
Experimental: Dye 1 of Table 1 was delivered to glioma sites in rat brains, such sites having been achieved by implanting RT-1 rat glioma cancer cells into the brains of twenty-four 400 g rats. Stock solutions of Dye 1 at 1 mM concentration were prepared by dissolving the dye in a minimal amount of 95% ethanol and diluting with phosphate buffered saline to 1 mM. RT-1 glioma cells were injected into the cortex of the rats at day 0. Treatment with the dye was done at day 12. A quantity of the stock solution sufficient to deliver 1.5 mg (2.5 μmol) of Dye 1 per rat (approximately2 mL) was delivered by femoral artery or carotid artery injection. The animals were sacrificed at the indicated times, the indicated tissues were removed, and frozen until the amount of dye was quantified. The dye content of the indicated tissues was examined spectroscopically by homogenizing the tissues, doing a lipid extraction of the homogenate, and measuring the optical density of the extract at a constant volume at the wavelength of the dye. Alternatively, a tritium labeled sample of Dye 1 was employed in the injection and the tissue homogenate was placed directly in a scintillation vial. The dye content was then measured by tritium count. […] (The values listed at times of 0.25 and 1.0 h after injection are comparative examples only, since there is either too high a concentration present in the brain, or too little in the tumor.)

[4] = Distribution of Dye 5 in organ tissues of rats bearing an implanted mammarian tumor; type: in vivo, rat; details: peritoneum, prep L, optical density
[5] = carotid artery, 0.33 h, prep H, tritium counts
[6] = femoral artery, 0.25 h, prep D, tritium counts
[7] = femoral artery, 0.50 h, prep D, tritium counts
[8] = femoral artery, 1.0 h, prep (L), optical density (B)
[9] = femoral artery, 1.0 h, prep D, tritium counts

## CC(C)(C)C1=CC(=CC=Cc2cc(C(C)(C)C)[s+]c(C(C)(C)C)c2)C=C(C(C)(C)C)S1.F[P-](F)(F)(F)(F)F [C.E. 1, 2,6-Di-t-butyl-4-[3-(2,6-di-t-butyl-4H-thiopyran-4-ylidene)-1-propen-1-yl]thiopyrylium hexafluorophosphate, reference compound]
[1]; H2O
  Absorption maximum λmax: 660 nm
[2]; air-saturated solution
  Quantum efficiency of singlet oxygen generation Φ(1O2): ≤ 0.001

## CC(C)(C)C1=CC(=CC=Cc2cc(C(C)(C)C)[o+]c(C(C)(C)C)c2)C=C(C(C)(C)C)S1.F[P-](F)(F)(F)(F)F [C.E. 2, 2,6-Di-t-butyl-4-[3-(2,6-di-t-butyl-4H-thiopyran-4-ylidene)-1-propen-1-yl]pyrylium hexafluorophosphate, reference compound]
[1]; H2O
  Absorption maximum λmax: 630 nm
[2]; air-saturated solution
  Quantum efficiency of singlet oxygen generation Φ(1O2): ≤ 0.001

## CC(C)(C)C1=CC(=CC=Cc2cc(C(C)(C)C)[se+]c(C(C)(C)C)c2)C=C(C(C)(C)C)[Te]1.[Cl-] [Dye 1, 2,6-Di-t-butyl-4-[3-(2,6-di-t-butyl-4H-telluropyran-4-ylidene)-1-propen-1-yl]selenopyrylium chloride]
RT-1 glioma cells; Dye 1 and light
  survival relative to animals in the control groups: prolonged survival
RT-1 glioma cells; Dye Only, day ≥15
  Proportion of Animals Surviving: 0.50
RT-1 glioma cells; Dye Only, day ≥19
  Proportion of Animals Surviving: 0.43
RT-1 glioma cells; Dye Only, day ≥22
  Proportion of Animals Surviving: 0.43
RT-1 glioma cells; Dye Only, day ≥26
  Proportion of Animals Surviving: 0.43
RT-1 glioma cells; Dye Only, day ≥33
  Proportion of Animals Surviving: 0.43
RT-1 glioma cells; Dye Only, day ≥40
  Proportion of Animals Surviving: 0.43
RT-1 glioma cells; Dye Only, day ≥47
  Proportion of Animals Surviving: 0.00
RT-1 glioma cells; Dye Only
  Mean Survival Time: 27.9 days
RT-1 glioma cells; Laser + Dye, day ≥15
  Proportion of Animals Surviving: 0.70
RT-1 glioma cells; Laser + Dye, day ≥19
  Proportion of Animals Surviving: 0.70
RT-1 glioma cells; Laser + Dye, day ≥22
  Proportion of Animals Surviving: 0.70
RT-1 glioma cells; Laser + Dye, day ≥26
  Proportion of Animals Surviving: 0.60
RT-1 glioma cells; Laser + Dye, day ≥33
  Proportion of Animals Surviving: 0.50
RT-1 glioma cells; Laser + Dye, day ≥40
  Proportion of Animals Surviving: 0.50
RT-1 glioma cells; Laser + Dye, day ≥47
  Proportion of Animals Surviving: 0.30
RT-1 glioma cells; Laser + Dye, 50 J cm^-2 at 785 nm
  Mean Survival Time: 32.8 days
RT-1 glioma cells; fully treated (laser + dye), from day 47 on
  animals still alive: 30%
[3]; [5]
  nmol Dye 1/g of tissue, Brain: 0.9 nmol Dye 1/g of tissue
  nmol Dye 1/g of tissue, Tumor: 16.0 nmol Dye 1/g of tissue
[3]; femoral artery, 0.25 h, prep (H), tritium counts
  nmol Dye 1/g of tissue, Liver: 5.4 nmol Dye 1/g of tissue
[3]; [6]
  nmol Dye 1/g of tissue, Brain: 46 nmol Dye 1/g of tissue
  nmol Dye 1/g of tissue, Heart: 7.4 nmol Dye 1/g of tissue
  nmol Dye 1/g of tissue, Liver: 9.1 nmol Dye 1/g of tissue
  nmol Dye 1/g of tissue, Tumor: 45 nmol Dye 1/g of tissue
[3]; [7]
  nmol Dye 1/g of tissue, Brain: 18.0 nmol Dye 1/g of tissue
  nmol Dye 1/g of tissue, Liver: 17.0 nmol Dye 1/g of tissue
  nmol Dye 1/g of tissue, Tumor: 32.0 nmol Dye 1/g of tissue
[3]; [8]
  nmol Dye 1/g of tissue, Heart: 1.1 nmol Dye 1/g of tissue
  nmol Dye 1/g of tissue, Liver: 3.3 nmol Dye 1/g of tissue
[3]; [9]
  nmol Dye 1/g of tissue, Brain: 4.7 nmol Dye 1/g of tissue
  nmol Dye 1/g of tissue, Heart: 1.3 nmol Dye 1/g of tissue
  nmol Dye 1/g of tissue, Liver: 13.2 nmol Dye 1/g of tissue
[3]; rat, arterial injection
  passage of the blood-brain barrier: appears to pass the blood-brain barrier
[3]; short time periods following injection
  concentrations of the dye in the tumor mass: reasonably high concentrations

## CC(C)(C)C1=CC(=CC=Cc2cc(C(C)(C)C)[se+]c(C(C)(C)C)c2)C=C(C(C)(C)C)[Se]1 [Dye 2]
[1]; H2O
  Absorption maximum λmax: 730 nm
[2]; air-saturated solution
  Quantum efficiency of singlet oxygen generation Φ(1O2): 0.014

## CC(C)(C)C1=CC(=CC=Cc2cc(C(C)(C)C)[s+]c(C(C)(C)C)c2)C=C(C(C)(C)C)[Te]1 [Dye 3]
[1]; H2O
  Absorption maximum λmax: 745 nm
[2]; air-saturated solution
  Quantum efficiency of singlet oxygen generation Φ(1O2): 0.07

## CC(C)(C)C1=CC(=CC=Cc2cc(C(C)(C)C)[o+]c(C(C)(C)C)c2)C=C(C(C)(C)C)[Te]1.[O-][Cl+3]([O-])([O-])[O-] [Dye 5, 2,6-Di-t-butyl-4-[3-(2,6-di-t-butyl-4H-telluropyran-4-ylidene)-1-propen-1-yl]pyrylium perchlorate]
[4]; 2 h
  nmol Dye 1/g of tissue, Heart: 1.3 nmol Dye 1/g of tissue
  nmol Dye 1/g of tissue, Kidney: ≤ 0.5 nmol Dye 1/g of tissue
  nmol Dye 1/g of tissue, Liver: 4.1 nmol Dye 1/g of tissue
  nmol Dye 1/g of tissue, Tumor: 5.5 nmol Dye 1/g of tissue
[4]; 4 h
  nmol Dye 1/g of tissue, Heart: ≤ 0.5 nmol Dye 1/g of tissue
  nmol Dye 1/g of tissue, Kidney: ≤ 0.5 nmol Dye 1/g of tissue
  nmol Dye 1/g of tissue, Liver: 3.8 nmol Dye 1/g of tissue
  nmol Dye 1/g of tissue, Tumor: 3.3 nmol Dye 1/g of tissue

## CC(C=Cc1cc(C(C)(C)C)[te+]c(C(C)(C)C)c1)=C1C=C(C(C)(C)C)[Se]C(C(C)(C)C)=C1 [Dye 6]
[1]; CH2Cl2
  Absorption maximum λmax: 803 nm
[2]; air-saturated solution
  Quantum efficiency of singlet oxygen generation Φ(1O2): 0.01

## CC(=CC(C)=C1C=C(C(C)(C)C)[Se]C(C(C)(C)C)=C1)c1cc(C(C)(C)C)[se+]c(C(C)(C)C)c1 [Dye 7]
[1]; MeOH
  Absorption maximum λmax: 790 nm
[2]; air-saturated solution
  Quantum efficiency of singlet oxygen generation Φ(1O2): 0.005

## CC(C)(C)C1=CC(=CC=Cc2cc(C(C)(C)C)[s+]c(C(C)(C)C)c2)C=C(C(C)(C)C)[Se]1 [Dye 8]
[1]; H2O
  Absorption maximum λmax: 700 nm
[2]; air-saturated solution
  Quantum efficiency of singlet oxygen generation Φ(1O2): 0.008

## C(=C1C=C(c2ccccc2)[Te]C(c2ccccc2)=C1)c1cc(-c2ccccc2)[te+]c(-c2ccccc2)c1 [Dye 10]
[1]; MeOH
  Absorption maximum λmax: 760 nm
[2]; air-saturated solution
  Quantum efficiency of singlet oxygen generation Φ(1O2): 0.08

## CC(=C1C=C(c2ccccc2)[Te]C(c2ccccc2)=C1)c1cc(-c2ccccc2)[te+]c(-c2ccccc2)c1 [Dye 11]
[1]; CH2Cl2
  Absorption maximum λmax: 843 nm
[2]; air-saturated solution
  Quantum efficiency of singlet oxygen generation Φ(1O2): 0.01

## CC(=C1C=C(C(C)(C)C)[Te]C(C(C)(C)C)=C1)c1cc(C(C)(C)C)[te+]c(C(C)(C)C)c1 [Dye 13]
[1]; H2O
  Absorption maximum λmax: 790 nm
[2]; air-saturated solution
  Quantum efficiency of singlet oxygen generation Φ(1O2): 0.005

## CC(C)(C)C1=CC(=C(C#N)C=Cc2cc(C(C)(C)C)[te+]c(C(C)(C)C)c2)C=C(C(C)(C)C)[Te]1 [Dye 15]
[1]; MeOH
  Absorption maximum λmax: 790 nm
[2]; air-saturated solution
  Quantum efficiency of singlet oxygen generation Φ(1O2): 0.08

## CC(C)(C)C1=CC(=Cc2cc(CCCCO)[te+]c(CCCCO)c2)C=C(C(C)(C)C)[Se]1 [Dye 18]
[1]; MeOH
  Absorption maximum λmax: 690 nm
[2]; estimated
  Quantum efficiency of singlet oxygen generation Φ(1O2): ≥ 0.005
